Laboratory results: patent US20260217672A1, “BENZAMIDE COMPOUNDS FOR TREATMENT OF BACTERIAL INFECTIONS” (Hoffmann-La Roche Inc., priority 2022, published 2026)
≈ marks a conversion by molar mass, not a printed value. Read-outs that look alike come from different tables or passages of the source.

Assays:
[1] = test system: Escherichia coli ATCC 25922; assay: Minimal Inhibitory Concentration (MIC) broth dilution assay; assay type: cell-based; settings: read-out: MIC Escherichia coli ATCC 25922
Outline: (§1)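 Broth dilution MIC in cation-adjusted Mueller Hinton broth, final inoculum 5×10^5 CFU/mL, serial 2-fold compound dilutions from DMSO stocks. Plates incubated 20 hours at 35° C. in ambient air; MIC read visually as lowest concentration inhibiting visible growth.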

[2] = test system: Klebsiella pneumonia ATCC 43816; assay: as above; assay type: cell-based; settings: Klebsiella pneumoniae, read-out: MIC Klebsiella pneumoniae ATCC43816
Outline: as §1

[3] = Human microsome stability assay; assay type: in vitro ADME; settings: 1 μM test compound, 0.5 mg/mL liver microsomal protein, NADPH regenerating system, 37° C.; <7 low, 7-16.2 medium, >16.2 high
Protocol: The human microsomal stability assay is used for early assessment of metabolic stability of a test compound in human liver microsomes.
Human liver microsomes (Cat.NO.: 452117, Corning, USA) were pre-incubated with test compound for 10 minutes at 37° C. in 100 mM potassium phosphate buffer, pH 7.4. The reactions were initiated by adding NADPH regenerating system. The final incubation mixtures contained 1 μM test compound, 0.5 mg/mL liver microsomal protein, 1 mM MgCl2, 1 mM NADP, 1 unit/mL isocitric dehydrogenase and 6 mM isocitric acid in 100 mM potassium phosphate buffer, pH 7.4. After incubation times of 0, 3, 6, 9, 15 and 30 minutes at 37° C., 300 μL of cold acetonitrile (including internal standard) was added to 100 μL incubation mixture to terminate the reaction. Following precipitation and centrifugation, the amount of compound remaining in the samples were determined by LC-MS/MS. Controls of no NADPH regenerating system at zero and 30 minutes were also prepared and analyzed. […] (Human microsome clearance: <7 mL/min/kg (low); 7-16.2 mL/min/kg (medium); >16.2 mL/min/kg (high))

| Compound | MIC ([1]; ATCC25922, 20 h) [µg/mL] | MIC ([2]; ATCC43816, 20 h) [µg/mL] | Clearance of Human microsome [3] [mL/min/kg] | MIC ([1]; ATCC25922, broth dilution in CAMHB, 5×10^5 CFU/mL, 20 hours at 35° C.) [µg/mL] | MIC ([2]; ATCC43816, broth dilution in CAMHB, 5×10^5 CFU/mL, 20 hours at 35° C.) [µg/mL] |
| --- | --- | --- | --- | --- | --- |
| NCCCNCc1ccc(C(=O)Nc2ccc(S(=O)(=O)N3CCN(c4cc(C(F)(F)F)cc(Cl)n4)CC3)cc2)cc1 [Example 001, 4-[(3-Aminopropylamino)methyl]-N-[4-[4-[6-chloro-4-(trifluoromethyl)-2-pyridyl]piperazin-1-yl]sulfonylphenyl]benzamide] | 0.51 (≈ 0.835 µM) | 1.5 (≈ 2.45 µM) | 6.2 | – | – |
| NCCCNCc1ccc(C(=O)Nc2ccc(S(=O)(=O)N3CCN(c4nccc(C(F)(F)F)n4)CC3)cc2)cc1 [Example 012, 4-[(3-Aminopropylamino)methyl]-N-[4-[4-[4-(trifluoromethyl)pyrimidin-2-yl]piperazin-1-yl]sulfonylphenyl]benzamide] | 1.8 (≈ 3.12 µM) | 3.6 (≈ 6.23 µM) | 6.2 | – | – |
| N#Cc1cc(Cl)nc(N2CCN(S(=O)(=O)c3ccc(NC(=O)c4cccc(CNCCCN)c4)cc3)CC2)c1 [Example 020, 3-[(3-Aminopropylamino)methyl]-N-[4-[4-(6-chloro-4-cyano-2-pyridyl)piperazin-1-yl]sulfonylphenyl]benzamide] | 1.2 (≈ 2.11 µM) | 2.5 (≈ 4.4 µM) | 8.8 | – | – |
| O=C(C1=NOC2(CCCNC2)C1)N1CCc2cc(S(=O)(=O)N3CCN(c4cc(C(F)(F)F)cc(Cl)n4)CC3)ccc21 (stereo not shown) [Example 039] | – | – | 9.4 | – | – |
| NCCCOc1ccc(C(=O)Nc2ccc(S(=O)(=O)N3CCN(c4cc(C(F)(F)F)cc(Cl)n4)CC3)cc2)cc1OCCCN [Example 065, 3,4-Bis(3-Aminopropoxy)-N-[4-[4-[6-chloro-4-(trifluoromethyl)-2-pyridyl]piperazin-1-yl]sulfonylphenyl]benzamide] | 0.26 (≈ 0.387 µM) | 0.52 (≈ 0.775 µM) | – | – | – |
| NCCCN1CCCC1c1cccc(C(=O)Nc2ccc(S(=O)(=O)N3CCN(c4cc(C(F)(F)F)cc(Cl)n4)CC3)cc2)c1 (stereo not shown) [Example 066, 3-[1-(3-Aminopropyl)pyrrolidin-2-yl]-N-[4-[4-[6-chloro-4-(trifluoromethyl)-2-pyridyl]piperazin-1-yl]sulfonylphenyl]benzamide] | 0.51 (≈ 0.783 µM) | 1 (≈ 1.54 µM) | – | – | – |
| NCCCN1CCC(c2cccc(C(=O)Nc3ccc(S(=O)(=O)N4CCN(c5cc(C(F)(F)F)cc(Cl)n5)CC4)cc3)c2)C1 (stereo not shown) [Example 067, 3-[1-(3-Aminopropyl)pyrrolidin-3-yl]-N-[4-[4-[6-chloro-4-(trifluoromethyl)-2-pyridyl]piperazin-1-yl]sulfonylphenyl]benzamide] | 0.51 (≈ 0.783 µM) | 1 (≈ 1.54 µM) | – | – | – |
| NC1CCN(CCc2ccc(C(=O)Nc3ccc(S(=O)(=O)N4CCN(c5cc(C(F)(F)F)cc(Cl)n5)CC4)cc3)cc2)C1 (stereo not shown) [Example 069, 4-[2-(3-Aminopyrrolidin-1-yl)ethyl]-N-[4-[4-[6-chloro-4-(trifluoromethyl)-2-pyridyl]piperazin-1-yl]sulfonylphenyl]benzamide] | 1.2 (≈ 1.88 µM) | 2.3 (≈ 3.61 µM) | – | – | – |
| NC1CCC12CN(CCc1ccc(C(=O)Nc3ccc(S(=O)(=O)N4CCN(c5cc(C(F)(F)F)cc(Cl)n5)CC4)cc3)cc1)C2 (stereo not shown) [Example 070, 4-[2-(7-Amino-2-azaspiro[3.3]heptan-2-yl)ethyl]-N-[4-[4-[6-chloro-4-(trifluoromethyl)-2-pyridyl]piperazin-1-yl]sulfonylphenyl]benzamide] | 1.2 (≈ 1.81 µM) | 2.4 (≈ 3.62 µM) | – | – | – |
| CN1CC2CCN(CCc3ccc(C(=O)Nc4ccc(S(=O)(=O)N5CCN(c6cc(C(F)(F)F)cc(Cl)n6)CC5)cc4)cc3)C2C1 (stereo not shown) [Example 071, N-[4-[4-[6-chloro-4-(trifluoromethyl)-2-pyridyl]piperazin-1-yl]sulfonylphenyl]-4-[2-(5-methyl-2,3,3a,4,6,6a-hexahydropyrrolo[2,3-c]pyrrol-1-yl)ethyl]benzamide] | 4.2 (≈ 6.2 µM) | 4.2 (≈ 6.2 µM) | – | – | – |
| O=C(Nc1ccc(S(=O)(=O)N2CCN(c3cc(C(F)(F)F)cc(Cl)n3)CC2)cc1)c1ccc(CCNCCCN2CCOCC2)cc1 [Example 073, N-[4-[4-[6-chloro-4-(trifluoromethyl)-2-pyridyl]piperazin-1-yl]sulfonylphenyl]-4-[2-(3-morpholinopropylamino)ethyl]benzamide] | 1.4 (≈ 2.01 µM) | 2.9 (≈ 4.17 µM) | – | – | – |
| NC1CC12CCN(CCc1ccc(C(=O)Nc3ccc(S(=O)(=O)N4CCN(c5cc(C(F)(F)F)cc(Cl)n5)CC4)cc3)cc1)C2 (stereo not shown) [Example 074, 4-[2-(2-Amino-5-azaspiro[2.4]heptan-5-yl)ethyl]-N-[4-[4-[6-chloro-4-(trifluoromethyl)-2-pyridyl]piperazin-1-yl]sulfonylphenyl]benzamide] | 2.8 (≈ 4.22 µM) | 2.8 (≈ 4.22 µM) | – | – | – |
| O=C(Nc1ccc(S(=O)(=O)N2CCN(c3cc(C(F)(F)F)cc(Cl)n3)CC2)cc1)c1ccc(CCN2C3CNCC2C3)cc1 [Example 075, N-[4-[4-[6-chloro-4-(trifluoromethyl)-2-pyridyl]piperazin-1-yl]sulfonylphenyl]-4-[2-(3,6-diazabicyclo[3.1.1]heptan-6-yl)ethyl]benzamide] | – | – | – | 2.7 (≈ 4.16 µM) | 5.5 (≈ 8.47 µM) |
| O=C(Nc1ccc(S(=O)(=O)N2CCN(c3cc(C(F)(F)F)cc(Cl)n3)CC2)cc1)c1cccc(CNCC2CCNCC2)c1 [Example 076, N-[4-[4-[6-chloro-4-(trifluoromethyl)-2-pyridyl]piperazin-1-yl]sulfonylphenyl]-3-[(4-piperidylmethylamino)methyl]benzamide] | 0.69 (≈ 1.06 µM) | 2.7 (≈ 4.15 µM) | – | – | – |
| NC1CC(CNCc2cccc(C(=O)Nc3ccc(S(=O)(=O)N4CCN(c5cc(C(F)(F)F)cc(Cl)n5)CC4)cc3)c2)C1 (stereo not shown) [Example 077, 3-[[(3-Aminocyclobutyl)methylamino]methyl]-N-[4-[4-[6-chloro-4-(trifluoromethyl)-2-pyridyl]piperazin-1-yl]sulfonylphenyl]benzamide] | 0.68 (≈ 1.07 µM) | 2.7 (≈ 4.24 µM) | – | – | – |
| NC1(C2CCN(Cc3cccc(C(=O)Nc4ccc(S(=O)(=O)N5CCN(c6cc(C(F)(F)F)cc(Cl)n6)CC5)cc4)c3)C2)CC1 (stereo not shown) [Example 079, 3-[[3-(1-Aminocyclopropyl)pyrrolidin-1-yl]methyl]-N-[4-[4-[6-chloro-4-(trifluoromethyl)-2-pyridyl]piperazin-1-yl]sulfonylphenyl]benzamide] | 1.1 (≈ 1.66 µM) | 2.2 (≈ 3.32 µM) | – | – | – |
| O=C(Nc1ccc(S(=O)(=O)N2CCN(c3cc(C(F)(F)F)cc(Cl)n3)CC2)cc1)c1cccc(CNCCCN(CCO)CCO)c1 [Example 080, 3-[[3-[Bis(2-hydroxyethyl)amino]propylamino]methyl]-N-[4-[4-[6-chloro-4-(trifluoromethyl)-2-pyridyl]piperazin-1-yl]sulfonylphenyl]benzamide] | 1.4 (≈ 2 µM) | 2.9 (≈ 4.15 µM) | – | – | – |
| COc1ccc(CNCCCC2CCNCC2)cc1C(=O)Nc1ccc(S(=O)(=O)N2CCN(c3cc(C(F)(F)F)cc(Cl)n3)CC2)cc1 [Example 081, N-[4-[4-[6-chloro-4-(trifluoromethyl)-2-pyridyl]piperazin-1-yl]sulfonylphenyl]-2-methoxy-5-[[3-(4-piperidyl)propylamino]methyl]benzamide] | 1.5 (≈ 2.11 µM) | 2.9 (≈ 4.09 µM) | – | – | – |
| NCC12CC1CN(Cc1cccc(C(=O)Nc3ccc(S(=O)(=O)N4CCN(c5cc(C(F)(F)F)cc(Cl)n5)CC4)cc3)c1)C2 (stereo not shown) [Example 082, 3-[[1-(Aminomethyl)-3-azabicyclo[3.1.0]hexan-3-yl]methyl]-N-[4-[4-[6-chloro-4-(trifluoromethyl)-2-pyridyl]piperazin-1-yl]sulfonylphenyl]benzamide] | 0.69 (≈ 1.06 µM) | 1.4 (≈ 2.16 µM) | – | – | – |
| O=C1NC(CNCc2cccc(C(=O)Nc3ccc(S(=O)(=O)N4CCN(c5cc(C(F)(F)F)cc(Cl)n5)CC4)cc3)c2)CO1 (stereo not shown) [Example 084, N-[4-[4-[6-chloro-4-(trifluoromethyl)-2-pyridyl]piperazin-1-yl]sulfonylphenyl]-3-[[(2-oxooxazolidin-4-yl)methylamino]methyl]benzamide] | 4.8 (≈ 7.35 µM) | 4.8 (≈ 7.35 µM) | – | – | – |
| COc1ccc(CN2CCC3CNCC32)cc1C(=O)Nc1ccc(S(=O)(=O)N2CCN(c3cc(C(F)(F)F)cc(Cl)n3)CC2)cc1 (stereo not shown) [Example 087, 5-(3,3a,4,5,6,6a-Hexahydro-2H-pyrrolo[3,4-b]pyrrol-1-ylmethyl)-N-[4-[4-[6-chloro-4-(trifluoromethyl)-2-pyridyl]piperazin-1-yl]sulfonylphenyl]-2-methoxy-benzamide] | 1.2 (≈ 1.77 µM) | 2.5 (≈ 3.68 µM) | – | – | – |
| NCCCNCc1ccccc1C(=O)Nc1ccc(S(=O)(=O)N2CCN(c3cc(C(F)(F)F)cc(Cl)n3)CC2)cc1 [Example 088, 2-[(3-Aminopropylamino)methyl]-N-[4-[4-[6-chloro-4-(trifluoromethyl)-2-pyridyl]piperazin-1-yl]sulfonylphenyl]benzamide] | 1.3 (≈ 2.13 µM) | 2.6 (≈ 4.25 µM) | – | – | – |
